Blank lines part the entries; values can stand above or below the molecule they belong to. Calls of active or inactive are those of the source. No cut-off for these calls is given here.
Assays:
[1] = Cytotoxicity against human T29 cells expressing wild type B-Raf assessed as cell viability after 72 hrs by MTT assay; type: functional, cell-based; details: T29, 72 h
[2] = Cytotoxicity against human F-6-8 cells expressing B-Raf V600E mutant assessed as cell viability after 72 hrs by MTT assay; type: functional, cell-based
[3] = biological target: Epidermal growth factor receptor (Homo sapiens) (UniProt P00533); test: Inhibition EGFR in human T29 cells assessed as suppression of STAT3 phosphorylation at Tyr705 after 24 hrs by Western blot analysis; type: cell-based
Epidermal growth factor receptor (Homo sapiens), sequence (P00533 whole entry): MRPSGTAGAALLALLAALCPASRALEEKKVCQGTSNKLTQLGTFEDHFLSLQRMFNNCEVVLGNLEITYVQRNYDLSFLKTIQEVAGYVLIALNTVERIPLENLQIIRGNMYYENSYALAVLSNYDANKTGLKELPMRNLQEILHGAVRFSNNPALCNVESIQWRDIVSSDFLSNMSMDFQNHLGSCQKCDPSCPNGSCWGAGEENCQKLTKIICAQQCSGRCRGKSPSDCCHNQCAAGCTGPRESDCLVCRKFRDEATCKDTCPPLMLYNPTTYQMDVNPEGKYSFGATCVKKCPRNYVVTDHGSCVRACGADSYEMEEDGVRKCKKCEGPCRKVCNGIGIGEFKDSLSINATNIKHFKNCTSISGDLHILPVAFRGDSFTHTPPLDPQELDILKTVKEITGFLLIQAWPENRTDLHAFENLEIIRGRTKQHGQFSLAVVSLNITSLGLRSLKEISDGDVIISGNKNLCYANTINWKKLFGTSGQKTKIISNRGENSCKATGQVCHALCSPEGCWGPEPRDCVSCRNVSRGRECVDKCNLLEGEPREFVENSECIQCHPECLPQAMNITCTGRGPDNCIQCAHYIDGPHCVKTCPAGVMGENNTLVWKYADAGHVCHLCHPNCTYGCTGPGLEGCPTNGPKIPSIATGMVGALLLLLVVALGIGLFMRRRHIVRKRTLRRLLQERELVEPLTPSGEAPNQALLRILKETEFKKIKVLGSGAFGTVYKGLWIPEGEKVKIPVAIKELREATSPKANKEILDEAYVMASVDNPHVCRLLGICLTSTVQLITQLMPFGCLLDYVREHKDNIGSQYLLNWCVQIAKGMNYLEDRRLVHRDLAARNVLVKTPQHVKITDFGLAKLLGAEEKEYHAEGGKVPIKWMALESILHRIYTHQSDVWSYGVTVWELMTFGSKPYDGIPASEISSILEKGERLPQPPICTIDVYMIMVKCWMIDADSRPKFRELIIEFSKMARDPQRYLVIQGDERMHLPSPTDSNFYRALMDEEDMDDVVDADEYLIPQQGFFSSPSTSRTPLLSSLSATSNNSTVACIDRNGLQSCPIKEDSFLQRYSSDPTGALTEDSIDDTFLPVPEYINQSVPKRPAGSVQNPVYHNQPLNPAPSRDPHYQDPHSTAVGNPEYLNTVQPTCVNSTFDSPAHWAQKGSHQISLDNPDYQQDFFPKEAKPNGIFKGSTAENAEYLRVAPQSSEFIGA

[4] = biological target: Epidermal growth factor receptor (Homo sapiens) (UniProt P00533); test: Inhibition of EGFR in human T29 cells assessed as suppression of C-Raf phosphorylation at p-21-activated protein kinase site, Ser338 after 24 hrs by Western blot analysis; type: cell-based
[5] = biological target: Epidermal growth factor receptor (Homo sapiens) (UniProt P00533); test: Inhibition of EGFR in human T29 cells assessed as suppression of AKT phosphorylation at mTORC2 site, Ser473 after 24 hrs by Western blot analysis; type: cell-based
[6] = biological target: Epidermal growth factor receptor (Homo sapiens) (UniProt P00533); test: Inhibition of EGFR in human T29 cells assessed as suppression of MEK phosphorylation at Ser217/Ser221 after 24 hrs by Western blot analysis; type: cell-based
[7] = biological target: Epidermal growth factor receptor (Homo sapiens) (UniProt P00533); test: Inhibition of EGFR in human T29 cells assessed as suppression of ERK phosphorylation at Tyr204 after 24 hrs by Western blot analysis; type: cell-based
[8] = biological target: Serine/threonine-protein kinase B-raf (Homo sapiens) (UniProt P15056); test: Inhibition of recombinant B-Raf (unknown origin) expressed in HEK293 cells using MEK1 peptide as substrate at 20 uM after 15 mins by radiometric assay in presence of [gamma-32P]ATP
Serine/threonine-protein kinase B-raf (Homo sapiens), sequence (P15056 whole entry): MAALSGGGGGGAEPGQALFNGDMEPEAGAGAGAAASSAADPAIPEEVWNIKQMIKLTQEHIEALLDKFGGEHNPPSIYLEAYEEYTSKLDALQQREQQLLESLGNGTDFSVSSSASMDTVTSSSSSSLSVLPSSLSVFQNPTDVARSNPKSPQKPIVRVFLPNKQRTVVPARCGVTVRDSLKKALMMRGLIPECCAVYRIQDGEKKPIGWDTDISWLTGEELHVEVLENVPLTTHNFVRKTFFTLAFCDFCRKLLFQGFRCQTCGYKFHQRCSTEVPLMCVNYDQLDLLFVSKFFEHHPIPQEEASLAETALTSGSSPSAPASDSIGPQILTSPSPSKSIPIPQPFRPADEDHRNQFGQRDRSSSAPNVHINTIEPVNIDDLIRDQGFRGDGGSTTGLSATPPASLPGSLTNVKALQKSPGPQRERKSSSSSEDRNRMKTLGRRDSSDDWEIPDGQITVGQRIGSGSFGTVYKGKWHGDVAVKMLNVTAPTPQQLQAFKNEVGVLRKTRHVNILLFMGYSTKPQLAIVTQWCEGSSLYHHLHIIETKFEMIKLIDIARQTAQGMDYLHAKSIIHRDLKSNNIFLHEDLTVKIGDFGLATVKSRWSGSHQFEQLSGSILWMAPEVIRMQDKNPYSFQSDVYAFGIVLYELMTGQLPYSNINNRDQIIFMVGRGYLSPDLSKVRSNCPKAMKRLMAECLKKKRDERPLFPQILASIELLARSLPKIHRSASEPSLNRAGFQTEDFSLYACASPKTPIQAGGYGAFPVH

[9] = biological target: Serine/threonine-protein kinase B-raf (Homo sapiens) (UniProt P15056); test: Competitive inhibition of recombinant B-Raf (unknown origin) expressed in HEK293 cells up to 100 uM after 60 to 120 mins by FRET analysis in presence of ATP; type: cell-based
[10] = tested on: T29; test: Induction of apoptosis in human T29 cells assessed as PARP cleavage at 10 uM after 24 hrs by Western blot analysis; type: functional, cell-based
[11] = Selectivity ratio of IC50 for human F-6-8 cells expressing B-Raf V600E mutant to IC50 for human T29 cells expressing wild type B-Raf; type: functional
[12] = tested on: T29; test: Cytotoxicity against human T29 cells assessed as increase in membrane blebbing at 10 uM after 24 hrs by inverted microscopic analysis; type: functional, cell-based
[13] = tested on: T29; test: Cytotoxicity against human T29 cells assessed as increase in cell shrinkage at 10 uM after 24 hrs by inverted microscopic analysis; type: functional, cell-based
[14] = tested on: T29; test: Cytotoxicity against human T29 cells assessed as increase in nuclear fragmentation at 10 uM after 24 hrs by inverted microscopic analysis; type: functional, cell-based
[15] = tested on: T29; test: Cytotoxicity against human T29 cells assessed as cell detachment from culture dish at 10 uM after 24 hrs by inverted microscopic analysis; type: functional, cell-based
[16] = Cell cycle arrest in human T29 cells assessed as increase in cell level at pre-G1 phase at 5 uM after 48 hrs by propidium iodide staining-based flow cytometric analysis; type: functional
[17] = Cell cycle arrest in human T29 cells assessed as increase in cell level at pre-G1 phase at 10 uM after 48 hrs by propidium iodide staining-based flow cytometric analysis; type: functional
[18] = Cell cycle arrest in human T29 cells assessed as decrease in cell level at G0/G1 phase at 5 to 10 uM after 48 to 72 hrs by propidium iodide staining-based flow cytometric analysis; type: functional
[19] = Cell cycle arrest in human T29 cells assessed as decrease in cell level at S phase at 5 to 10 uM after 48 to 72 hrs by propidium iodide staining-based flow cytometric analysis; type: functional
[20] = Cell cycle arrest in human T29 cells assessed as decrease in cell level at G2/M phase at 5 to 10 uM after 48 to 72 hrs by propidium iodide staining-based flow cytometric analysis; type: functional
[21] = Cell cycle arrest in human T29 cells assessed as increase in cell level at pre-G1 phase at 5 uM after 72 hrs by propidium iodide staining-based flow cytometric analysis; type: functional
[22] = Cell cycle arrest in human T29 cells assessed as increase in cell level at pre-G1 phase at 10 uM after 72 hrs by propidium iodide staining-based flow cytometric analysis; type: functional
[23] = biological target: Epidermal growth factor receptor (Homo sapiens) (UniProt P00533); test: Inhibition of EGFR autophosphorylation at Tyr1068 in human T29 cells after 24 hrs by Western blot analysis; type: cell-based
[24] = biological target: Epidermal growth factor receptor (Homo sapiens) (UniProt P00533); test: Inhibition of EGFR in human T29 cells assessed as suppression of Src phosphorylation at Tyr416 after 24 hrs by Western blot analysis; type: cell-based

SMILES: N=C(N)Nc1cccc(Cc2ccc(NC(=N)Nc3ccc(Cl)c(C(F)(F)F)c3)cc2)c1
IC50 [1]: 4.5 µM | IC50 [2]: 7.6 µM

SMILES: CC(=O)Nc1cccc(Nc2ccc(NC(=N)Nc3ccc(Cl)c(C(F)(F)F)c3)cc2)c1
IC50 [1]: 4.1 µM | IC50 [2]: 6.6 µM

SMILES: CNC(=O)c1cc(Oc2ccc(NC(=O)Nc3ccc(Cl)c(C(F)(F)F)c3)cc2)ccn1 [SORAFENIB]
IC50 [1]: 0.9 µM | IC50 [2]: 1.3 µM

inhibition [3]: Dose-dependent effect | inhibition [4]: Dose-dependent effect | inhibition [5]: Dose-dependent effect | inhibition [6]: Dose-dependent effect | inhibition [7]: Dose-dependent effect | inhibition [8]: Active | inhibition [9]: inactive | inhibition [23]: Dose-dependent effect | inhibition [24]: Dose-dependent effect
SMILES: N=C(N)Nc1ccc(Oc2cccc(NC(=N)Nc3ccc(Cl)c(C(F)(F)F)c3)c2)cc1
Activity [10]: Active | IC50 [1]: 0.9 µM | IC50 [2]: 2.6 µM | Ratio IC50 [11]: 2 | Activity [12]: Active | Activity [13]: Active | Activity [14]: Active | Activity [15]: Active | Activity [16]: 8.5% | Activity [17]: 20.7% | Activity [18]: Active | Activity [19]: Active | Activity [20]: Active | Activity [21]: 22.5% | Activity [22]: 38.7%

SMILES: N=C(N)Nc1ccc(Oc2cccc(NC(=N)N)c2)cc1
IC50 [1]: 6.5 µM | IC50 [2]: 9.8 µM

Reference: ChEMBL document CHEMBL3616403, “Probing a 3,4'-bis-guanidinium diaryl derivative as an allosteric inhibitor of the Ras pathway” (Bioorg Med Chem Lett, 2015)
